Our source for the IC50 values is US8263597B2, “Indazole compounds as CCR1 receptor antagonists” (Boehringer Ingelheim International GmbH, priority 2008, dated 2012).

A word on the pIC50: it is the IC50 on a negative log10 scale, so that one unit is a factor of ten.

Assay [1] concerns the target T1, CCR1 (Homo sapiens, UniProt P32246).
T1 sequence (P32246 1-355): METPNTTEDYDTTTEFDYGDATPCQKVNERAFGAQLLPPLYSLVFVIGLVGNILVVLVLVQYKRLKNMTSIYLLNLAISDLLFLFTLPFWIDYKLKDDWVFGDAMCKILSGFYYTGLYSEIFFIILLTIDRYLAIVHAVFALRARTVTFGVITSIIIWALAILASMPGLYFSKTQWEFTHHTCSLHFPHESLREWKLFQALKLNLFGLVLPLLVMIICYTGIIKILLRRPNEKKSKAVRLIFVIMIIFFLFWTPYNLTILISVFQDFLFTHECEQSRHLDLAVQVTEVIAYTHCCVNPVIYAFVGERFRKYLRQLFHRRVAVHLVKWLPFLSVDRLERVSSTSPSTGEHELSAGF
As to the kind of experiment: Calcium flux in response to MIP-1 alpha in CCR1-transfected cells, Method A (Fluo-4 NW, FLIPR TETRA). The class given is cell-based. As to conditions: cells stably expressing recombinant CCR1 and G-alpha-16; MIP-1 alpha at EC80; 1 hour incubation at room temperature. The protocol: (§1) Compounds are assessed for the ability to block the interaction of CCR1 and its ligand in a functional cellular assay measuring calcium flux in response to MIP-1α in CCR1-transfected cells.
On the day of the assay, the cells are transferred to a beaker and dye-loaded in bulk using a Fluo-4 NW Calcium Assay Kit with probenecid (Invitrogen F36205) at 0.8E6 cells/mL for 1 hour at room temperature. After 1 hour, they are seeded in a 384-well tissue culture-treated plate at a density of 20,000 cells/well. Appropriately diluted test compound is added to the well to achieve a top concentration of 3,000 nM (diluted 3-fold with 10 doses total). The final concentration of DMSO is 1%. […] The cells are allowed to incubate 1 hour in the dark at room temperature. The plates are transferred to the FLIPR TETRA where MIP-1 alpha in 1% BSA is added at the EC80 final concentration. Wells +/−MIP-1 alpha containing diluted DMSO instead of compound serve as the controls.
For orientation: Calcium flux is commonly read through the fluorescence of an indicator in the cells.

Assay [2] deals with T1, CCR1. The assay can be described thus: Calcium flux in response to MIP-1 alpha in CCR1-transfected cells, Method B (Calcium 4 dye, […] FDSS6000). Type of assay: cell-based. As to conditions: cells stably expressing recombinant CCR1 and G-alpha-16; MIP-1 alpha at EC80; 30 minutes at 37 C then 30 minutes at room temperature. The protocol:
as §1
Method B: Non-adherent cells purchased from Chemicon Corporation (HTS005C), stably expressing recombinant CCR1 and G-alpha-16 are grown in RPMI 1640 medium (Mediatech 10-080-CM) supplemented with 10% FBS, 0.4 mg/mL Geneticin and penicillin/streptomycin. On the day of the assay, the cells are loaded with Calcium 4 dye (Molecular Devices R7448) with Probenecid (Invitrogen P346400) at 8E5 cells/mL for 1 hour at room temperature. After 1 hour, they are seeded in a 384-well tissue culture-treated plate at a density of 20,000 cells/well. Appropriately diluted test compound is added to the well to achieve a top concentration of 3,000 nM (diluted 4-fold with 10 doses total). The final concentration of DMSO is 1%. The buffer is HBSS (Invitrogen 14025) with 20 mM HEPES at pH 7.4. The cells incubate 30 minutes at 37 C and then 30 minutes at room temperature. The plates are transferred to the […] FDSS6000 where MIP-1 alpha in 1% BSA is added at the EC80 final concentration. All plates must be read within 4 hours of the start of dye-loading. Wells +/−MIP-1alpha containing diluted DMSO instead of compound serve as the controls. Data are analyzed using Activity Base software.

SMILES strings stand for the structures. pIC50: −log10 of the molar value.

As to `CC(NC(=O)c1cccc2c1cnn2-c1ccc(F)cc1)c1cccc(C(F)(F)F)c1` (centres unmarked) [1-(4-Fluoro-phenyl)-1H-indazole-4-carboxylic acid [1-(3-trifluoromethyl-phenyl)-ethyl]-amide], the pIC50 in assay [1] was 7.85.
For the molecule `CCC[C@H](NC(=O)c1cccc2c1cnn2-c1ccc(F)cc1)c1cccc(Br)c1` [1-(4-Fluoro-phenyl)-1H-indazole-4-carboxylic acid [(S)-1-(3-bromo-phenyl)-butyl]-amide], the pIC50 in assay [1] is 7.72.
The same measure, in the same setting: as for `COCCNS(=O)(=O)c1ccc(CNC(=O)c2cccc3c2cnn3-c2ccc(F)cc2)cc1` [1-(4-Fluoro-phenyl)-1H-indazole-4-carboxylic acid 4-(2-methoxy-ethylsulfamoyl)-benzylamide], the figure is 8.00.
With `CC[C@H](NC(=O)c1cc(Br)cc2c1cnn2-c1ccc(F)cc1)c1ccc(S(C)(=O)=O)nc1` [6-Bromo-1-(4-fluoro-phenyl)-1H-indazole-4-carboxylic acid [(S)-1-(6-methanesulfonyl-pyridin-3-yl)-propyl]-amide], in assay [2], the pIC50 was 7.64.
Consider `CS(=O)(=O)c1ccc(CNC(=O)c2cccc3c2cnn3-c2ccc(F)cc2)c(Cl)c1` [1-(4-Fluoro-phenyl)-1H-indazole-4-carboxylic acid 2-chloro-4-methanesulfonyl-benzylamide], for which the pIC50 in assay [1] is 8.17.
Take `COc1cc(CNC(=O)c2cccc3c2cnn3-c2ccc(F)cc2)ccn1` [1-(4-Fluoro-phenyl)-1H-indazole-4-carboxylic acid (2-methoxy-pyridin-4-ylmethyl)-amide]: the negative logarithm of the IC50 (pIC50) in assay [1] was 7.66.
The same measure, in the same setting: as for `O=C(NCc1ccc(S(=O)(=O)N2CCOCC2)cc1)c1cccc2c1cnn2-c1ccc(F)cc1` [1-(4-Fluoro-phenyl)-1H-indazole-4-carboxylic acid 4-(morpholine-4-sulfonyl)-benzylamide], the figure is 7.85.
Same read-out and setting: as for `CNS(=O)(=O)c1ccc(CNC(=O)c2cc(C)cc3c2cnn3-c2ccc(F)cc2)cc1` [1-(4-Fluoro-phenyl)-6-methyl-1H-indazole-4-carboxylic acid 4-methylsulfamoyl-benzylamide], the figure is 7.70; as for `O=C(NCc1ccc(S(=O)(=O)NC2CCOCC2)cc1)c1cccc2c1cnn2-c1ccc(F)cc1` [1-(4-Fluoro-phenyl)-1H-indazole-4-carboxylic acid 4-(tetrahydro-pyran-4-ylsulfamoyl)-benzylamide], 7.70; as for `CC(=O)NCCNS(=O)(=O)c1ccc(CNC(=O)c2cccc3c2cnn3-c2ccc(F)cc2)cc1` [1-(4-Fluoro-phenyl)-1H-indazole-4-carboxylic acid 4-(2-acetylamino-ethylsulfamoyl)-benzylamide], 6.96.
On the same count and under the same terms, as for `CNS(=O)(=O)c1ccc(CNC(=O)c2cccc3c2cnn3-c2ccc(F)cc2)c(Cl)c1` [1-(4-Fluoro-phenyl)-1H-indazole-4-carboxylic acid 2-chloro-4-methylsulfamoyl-benzylamide], the figure is 8.40.
Turning to `CN1CCC(NS(=O)(=O)c2ccc(CNC(=O)c3cc(C#N)cc4c3cnn4-c3ccc(F)cc3)cc2)CC1` [6-Cyano-1-(4-fluoro-phenyl)-1H-indazole-4-carboxylic acid 4-(1-methyl-piperidin-4-ylsulfamoyl)-benzylamide], in assay [1], the negative-log IC50 (pIC50) is 7.74.
For the molecule `CS(=O)(=O)c1cccc(CNC(=O)c2cc(C#N)cc3c2cnn3-c2ccc(F)cc2)c1` [6-Cyano-1-(4-fluoro-phenyl)-1H-indazole-4-carboxylic acid 3-methanesulfonyl-benzylamide], the negative-log IC50 (pIC50) in assay [1] is 8.70.
Still for that read-out and setting: as for `CN(C)C1CCN(S(=O)(=O)c2ccc(CNC(=O)c3cccc4c3cnn4-c3ccc(F)cc3)cc2)CC1` [1-(4-Fluoro-phenyl)-1H-indazole-4-carboxylic acid 4-(4-dimethylamino-piperidine-1-sulfonyl)-benzylamide], the figure is 7.64; as for `O=C(NCc1cccc(Br)c1)c1cccc2c1cnn2-c1ccc(F)cc1` [1-(4-Fluoro-phenyl)-1H-indazole-4-carboxylic acid 3-bromo-benzylamide], 7.12; as for `N#Cc1cc(CNC(=O)c2cccc3c2cnn3-c2ccc(F)cc2)ccn1` [1-(4-Fluoro-phenyl)-1H-indazole-4-carboxylic acid (2-cyano-pyridin-4-ylmethyl)-amide], 6.92.
The same measure, in the same setting: as for `COc1cc(CNC(=O)c2cccc3c2cnn3-c2ccc(F)cc2)cc(OC)c1` [1-(4-Fluoro-phenyl)-1H-indazole-4-carboxylic acid 3,5-dimethoxy-benzylamide], the figure is 7.60; as for `CNS(=O)(=O)c1ccc(CNC(=O)c2cc(C#N)cc3c2cnn3-c2ccc(F)cc2)cc1` [6-Cyano-1-(4-fluoro-phenyl)-1H-indazole-4-carboxylic acid 4-methylsulfamoyl-benzylamide], 9.52; as for `O=C(NCc1ccc(S(=O)(=O)NCCO)cc1)c1cccc2c1cnn2-c1ccc(F)cc1` [1-(4-Fluoro-phenyl)-1H-indazole-4-carboxylic acid 4-(2-hydroxy-ethylsulfamoyl)-benzylamide], 8.04.
Take `CS(=O)(=O)Nc1ccc(CNC(=O)c2cc(C#N)cc3c2cnn3-c2ccc(F)cc2)cn1` [6-Cyano-1-(4-fluoro-phenyl)-1H-indazole-4-carboxylic acid (6-methanesulfonylamino-pyridin-3-ylmethyl)-amide]: the pIC50 in assay [1] is 8.36.
On the same count and under the same terms, as for `CNS(=O)(=O)c1ccc(CNC(=O)c2cccc3c2cnn3-c2ccc(F)cc2)c(F)c1` [1-(4-Fluoro-phenyl)-1H-indazole-4-carboxylic acid 2-fluoro-4-methylsulfamoyl-benzylamide], the figure is 8.27; as for `N#Cc1cc(C(=O)NCc2ccc(Br)nc2)c2cnn(-c3ccc(F)cc3)c2c1` [6-Cyano-1-(4-fluoro-phenyl)-1H-indazole-4-carboxylic acid (6-bromo-pyridin-3-ylmethyl)-amide], 7.68.
The same measure, in the same setting: as for `CN1CCC(N(C)S(=O)(=O)c2ccc(CNC(=O)c3cccc4c3cnn4-c3ccc(F)cc3)cc2)CC1` [1-(4-Fluoro-phenyl)-1H-indazole-4-carboxylic acid 4-[methyl-(1-methyl-piperidin-4-yl)-sulfamoyl]-benzylamide], the figure is 7.36; as for `CN1CCC(N(C)S(=O)(=O)c2ccc(CNC(=O)c3cc(C#N)cc4c3cnn4-c3ccc(F)cc3)cc2)CC1` [6-Cyano-1-(4-fluoro-phenyl)-1H-indazole-4-carboxylic acid 4-[methyl-(1-methyl-piperidin-4-yl)-sulfamoyl]-benzylamide], 8.29.
The same measure, in the same setting: as for `CN1CCN(S(=O)(=O)c2ccc(CNC(=O)c3cc(C#N)cc4c3cnn4-c3ccc(F)cc3)cc2)CC1` [6-Cyano-1-(4-fluoro-phenyl)-1H-indazole-4-carboxylic acid 4-(4-methyl-piperazine-1-sulfonyl)-benzylamide], the figure is 8.82.
`CS(=O)(=O)c1ccc(CNC(=O)c2cc(C#N)cc3c2cnn3-c2ccc(F)cc2)cn1` [6-Cyano-1-(4-fluoro-phenyl)-1H-indazole-4-carboxylic acid (6-methanesulfonyl-pyridin-3-ylmethyl)-amide]: the pIC50 in assay [1] is 8.15.
Still for that read-out and setting: as for `CNS(=O)(=O)c1ccc(CNC(=O)c2cc(S(C)(=O)=O)cc3c2cnn3-c2ccc(F)cc2)cc1` [1-(4-Fluoro-phenyl)-6-methanesulfonyl-1H-indazole-4-carboxylic acid 4-methylsulfamoyl-benzylamide], the figure is 7.55.
Same read-out and setting: as for `CC(C)NS(=O)(=O)Cc1ccc(CNC(=O)c2cccc3c2cnn3-c2ccc(F)cc2)cc1` [1-(4-Fluoro-phenyl)-1H-indazole-4-carboxylic acid 4-(isopropylsulfamoyl-methyl)-benzylamide], the figure is 7.26.
On the same count and under the same terms, as for `CCOC(=O)COc1cc(CNC(=O)c2cccc3c2cnn3-c2ccc(F)cc2)ccn1` [[4-({[1-(4-Fluoro-phenyl)-1H-indazole-4-carbonyl]-amino}-methyl)-pyridin-2-yloxy]-acetic acid ethyl ester], the figure is 6.85.
